According to patent US6914045B2, “Glycopeptide antibiotics” (Wyeth Holdings Corporation, priority 2001, dated 2005):
≈ marks a conversion by molar mass, not a printed value.

Legend:
Test in all cases: in vitro antibacterial evaluation, MIC by broth dilution
Type in all cases: cell-based
Enterococcus sp. = details: broth dilution, 18 hours at 35° C.; for MIC Enterococcus faecalis (ATCC 29212): strain ATCC 29212; for MIC Enterococcus faecalis (GC 2242): strain GC 2242; for MIC Enterococcus faecium (GC 2243): strain GC 2243; for MIC Enterococcus faecalis (GC 2691): strain GC 2691; for MIC Enterococcus faecalis (GC 3059): strain GC 3059; for MIC Enterococcus faecalis (GC 4552): strain GC 4552; for MIC Enterococcus faecalis (GC 4553): strain GC 4553; for MIC Enterococcus faecalis (GC 4554): strain GC 4554; for MIC Enterococcus faecium (GC 4556): strain GC 4556; for MIC Enterococcus faecium (GC 4557): strain GC 4557; for MIC Enterococcus avium (GC 4558): strain GC 4558; for MIC Enterococcus faecalis (GC 6189): strain GC 6189
In short: (§1)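 Step 1: dilute antibiotic across 64-0.06 μg/mL in Muller-Hinton II […]. Step 2: inoculate at 5×10^5 CFU/mL.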

Streptococcus sp. = details: broth dilution, 18 hours at 35° C.; for MIC Streptococcus pneumoniae (ATCC 6301): strain ATCC 6301; for MIC Streptococcus pneumoniae (GC 1894): strain GC 1894; for MIC Streptococcus pyogenes (GC 4563): strain GC 4563; for MIC Streptococcus agalactiae (GC 4564): strain GC 4564; for MIC Streptococcus pneumoniae (GC 4565): strain GC 4565
In short: as §1

Escherichia coli = test system: Escherichia coli
In short: as §1

Staphylococcus sp. = details: broth dilution, 18 hours at 35° C.; for MIC Staphylococcus aureus (GC 1131): strain GC 1131
In short: as §1

MIC Enterococcus faecalis (ATCC 29212) (Enterococcus sp.; inoculum 5×10^5 CFU/mL): 16 µg/mL (≈ 10.9 µM)
MIC Enterococcus faecalis (GC 2242) (Enterococcus sp.; inoculum 5×10^5 CFU/mL): 16 µg/mL (≈ 10.9 µM)
MIC Enterococcus faecium (GC 2243) (Enterococcus sp.; inoculum 5×10^5 CFU/mL): 8 µg/mL (≈ 5.46 µM)
MIC Enterococcus faecalis (GC 2691) (Enterococcus sp.; inoculum 5×10^5 CFU/mL): 16 µg/mL (≈ 10.9 µM)
MIC Enterococcus faecalis (GC 3059) (Enterococcus sp.; inoculum 5×10^5 CFU/mL): 16 µg/mL (≈ 10.9 µM)
MIC Enterococcus faecalis (GC 4552) (Enterococcus sp.; inoculum 5×10^5 CFU/mL): 16 µg/mL (≈ 10.9 µM)
MIC Enterococcus faecalis (GC 4553) (Enterococcus sp.; inoculum 5×10^5 CFU/mL): 16 µg/mL (≈ 10.9 µM)
MIC Enterococcus faecalis (GC 4554) (Enterococcus sp.; inoculum 5×10^5 CFU/mL): 16 µg/mL (≈ 10.9 µM)
MIC Enterococcus faecium (GC 4556) (Enterococcus sp.; inoculum 5×10^5 CFU/mL): 16 µg/mL (≈ 10.9 µM)
MIC Enterococcus faecium (GC 4557) (Enterococcus sp.; inoculum 5×10^5 CFU/mL): 4 µg/mL (≈ 2.73 µM)
MIC Enterococcus avium (GC 4558) (Enterococcus sp.; inoculum 5×10^5 CFU/mL): 8 µg/mL (≈ 5.46 µM)
MIC Enterococcus faecalis (GC 6189) (Enterococcus sp.; inoculum 5×10^5 CFU/mL): 16 µg/mL (≈ 10.9 µM)
MIC Enterococcus faecalis (ATCC 29212) (Enterococcus sp.): 16 µg/mL (≈ 10.9 µM)
MIC Enterococcus faecalis (GC 2242) (Enterococcus sp.): 16 µg/mL (≈ 10.9 µM)
MIC Enterococcus faecium (GC 2243) (Enterococcus sp.): 8 µg/mL (≈ 5.46 µM)
MIC Enterococcus faecalis (GC 2691) (Enterococcus sp.): 16 µg/mL (≈ 10.9 µM)
MIC Enterococcus faecalis (GC 3059) (Enterococcus sp.): 16 µg/mL (≈ 10.9 µM)
MIC Enterococcus faecalis (GC 4552) (Enterococcus sp.): 16 µg/mL (≈ 10.9 µM)
MIC Enterococcus faecalis (GC 4553) (Enterococcus sp.): 16 µg/mL (≈ 10.9 µM)
MIC Enterococcus faecalis (GC 4554) (Enterococcus sp.): 16 µg/mL (≈ 10.9 µM)
MIC Enterococcus faecium (GC 4556) (Enterococcus sp.): 16 µg/mL (≈ 10.9 µM)
MIC Enterococcus faecium (GC 4557) (Enterococcus sp.): 4 µg/mL (≈ 2.73 µM)
MIC Enterococcus avium (GC 4558) (Enterococcus sp.): 8 µg/mL (≈ 5.46 µM)
MIC Enterococcus faecalis (GC 6189) (Enterococcus sp.): 16 µg/mL (≈ 10.9 µM)
MIC Streptococcus pneumoniae (ATCC 6301) (Streptococcus sp.; inoculum 5×10^5 CFU/mL): 1 µg/mL (≈ 0.682 µM)
MIC Streptococcus pneumoniae (GC 1894) (Streptococcus sp.; inoculum 5×10^5 CFU/mL): 0.25 µg/mL (≈ 0.171 µM)
MIC Streptococcus pyogenes (GC 4563) (Streptococcus sp.; inoculum 5×10^5 CFU/mL): 0.5 µg/mL (≈ 0.341 µM)
MIC Streptococcus agalactiae (GC 4564) (Streptococcus sp.; inoculum 5×10^5 CFU/mL): 1 µg/mL (≈ 0.682 µM)
MIC Streptococcus pneumoniae (GC 4565) (Streptococcus sp.; inoculum 5×10^5 CFU/mL): 1 µg/mL (≈ 0.682 µM)
MIC Streptococcus pneumoniae (ATCC 6301) (Streptococcus sp.): 1 µg/mL (≈ 0.682 µM)
MIC Streptococcus pneumoniae (GC 1894) (Streptococcus sp.): 0.25 µg/mL (≈ 0.171 µM)
MIC Streptococcus pyogenes (GC 4563) (Streptococcus sp.): 0.5 µg/mL (≈ 0.341 µM)
MIC Streptococcus agalactiae (GC 4564) (Streptococcus sp.): 1 µg/mL (≈ 0.682 µM)
MIC Streptococcus pneumoniae (GC 4565) (Streptococcus sp.): 1 µg/mL (≈ 0.682 µM)
MIC Escherichia coli (ATCC 25922) (Escherichia coli; strain ATCC 25922, 18 hours at 35° C.): 32 µg/mL (≈ 21.8 µM)
MIC Escherichia coli (GC 4559) (Escherichia coli; strain GC 4559, 18 hours at 35° C.): 32 µg/mL (≈ 21.8 µM)
MIC Escherichia coli (GC 4560) (Escherichia coli; strain GC 4560, 18 hours at 35° C.): 8 µg/mL (≈ 5.46 µM)
MIC Staphylococcus aureus (GC 1131) (Staphylococcus sp.; inoculum 5×10^5 CFU/mL): 8 µg/mL (≈ 5.46 µM)
MIC Staphylococcus aureus (ATCC 29213) (Staphylococcus sp.; strain ATCC 29213): 8 µg/mL (≈ 5.46 µM)
MIC Staphylococcus aureus (GC 1131) (Staphylococcus sp.): 8 µg/mL (≈ 5.46 µM)
MIC Staphylococcus aureus (GC 3051) (Staphylococcus sp.; strain GC 3051): 8 µg/mL (≈ 5.46 µM)
MIC Staphylococcus aureus (GC 3053) (Staphylococcus sp.; strain GC 3053): 8 µg/mL (≈ 5.46 µM)
MIC Staphylococcus aureus (GC 4541) (Staphylococcus sp.; strain GC 4541): 8 µg/mL (≈ 5.46 µM)
MIC Staphylococcus aureus (GC 4542) (Staphylococcus sp.; strain GC 4542): 16 µg/mL (≈ 10.9 µM)
MIC Staphylococcus aureus-SMITH (GC 4543) (Staphylococcus sp.; strain GC 4543): 8 µg/mL (≈ 5.46 µM)
MIC Staphylococcus aureus (GC 4544) (Staphylococcus sp.; strain GC 4544): 8 µg/mL (≈ 5.46 µM)
MIC Staphylococcus aureus (GC 4545) (Staphylococcus sp.; strain GC 4545): 8 µg/mL (≈ 5.46 µM)
MIC Coagulase Negative Staphylococcus (GC 4547) (Staphylococcus sp.; strain GC 4547): 8 µg/mL (≈ 5.46 µM)
MIC Coagulase Negative Staphylococcus (GC 4548) (Staphylococcus sp.; strain GC 4548): 4 µg/mL (≈ 2.73 µM)
MIC Coagulase Negative Staphylococcus (GC 4549) (Staphylococcus sp.; strain GC 4549): 4 µg/mL (≈ 2.73 µM)
MIC Coagulase Negative Staphylococcus (GC 4551) (Staphylococcus sp.; strain GC 4551): 8 µg/mL (≈ 5.46 µM)
MIC Coagulase Negative Staphylococcus (GC 6257) (Staphylococcus sp.; strain GC 6257): 4 µg/mL (≈ 2.73 µM)
MIC Staphylococcus aureus-SMITH (GC 4543) (Staphylococcus sp.; strain SMITH GC 4543): 8 µg/mL (≈ 5.46 µM)
SMILES: CC(c1ccccc1)C1NC(=O)CNC(=O)C(CO)NC(=O)C(C(O)C2CNC(=N)N2C2OC(CO)C(O)C(O)C2O)NC(=O)C(C(O)C2CNC(=N)N2)NC(=O)C(Cc2ccc(OC3OC(CO)C(OC4OC(CO)C(O)C5OC(c6ccc(-c7ccsc7)cc6)OC45)C(O)C3O)cc2)NC1=O (stereo not drawn) [Example 164a]
MIC Staphylococcus haemolyticus (GC 4546) (Staphylococcus sp.; strain GC 4546): 4 µg/mL (≈ 2.73 µM)
